Measurements reported in ChEMBL document CHEMBL1128591, “1,2-Diarylcyclopentenes as selective cyclooxygenase-2 inhibitors and orally active anti-inflammatory agents” (J Med Chem, 1995).
pIC50: −log10 of the molar value.

Key:
Rattus norvegicus [1] = organism: Rattus norvegicus; assay: animal or person; details: read-out: Inhibition
Rattus norvegicus [2] = organism: Rattus norvegicus; assay: animal or person; details: read-out: Inhibition; remark: listed apart in the source
[3] = molecular target: Prostaglandin G/H synthase 1 (Homo sapiens, UniProt P23219)
Sequence of Prostaglandin G/H synthase 1 (P23219 whole entry): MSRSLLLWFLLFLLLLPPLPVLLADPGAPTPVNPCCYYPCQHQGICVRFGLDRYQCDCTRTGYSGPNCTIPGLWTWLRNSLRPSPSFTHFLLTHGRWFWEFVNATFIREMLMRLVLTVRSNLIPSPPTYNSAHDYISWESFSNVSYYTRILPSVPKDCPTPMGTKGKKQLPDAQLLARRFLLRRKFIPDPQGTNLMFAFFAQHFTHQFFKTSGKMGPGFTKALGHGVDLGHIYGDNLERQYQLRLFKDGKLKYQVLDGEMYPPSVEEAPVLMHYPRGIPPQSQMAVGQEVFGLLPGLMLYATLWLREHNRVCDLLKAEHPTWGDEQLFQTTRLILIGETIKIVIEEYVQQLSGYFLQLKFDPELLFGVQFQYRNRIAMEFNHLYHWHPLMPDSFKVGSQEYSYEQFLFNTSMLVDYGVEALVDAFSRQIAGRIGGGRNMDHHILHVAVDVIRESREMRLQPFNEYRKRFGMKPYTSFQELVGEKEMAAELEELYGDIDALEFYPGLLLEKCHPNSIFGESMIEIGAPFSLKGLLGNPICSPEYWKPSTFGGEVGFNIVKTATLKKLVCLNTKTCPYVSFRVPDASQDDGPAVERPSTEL

How did the inhibition in vivo at 30 mg/kg (Rattus norvegicus [1]) turn out when `COc1ccc(C2=C(c3ccc(S(C)(=O)=O)cc3)CCC2)cc1` was run?
Its inhibition in vivo at 30 mg/kg is 42.7%.

What about the inhibition in vivo at 1 mg/kg (Rattus norvegicus [2]) of the same compound?
The inhibition in vivo at 1 mg/kg was 0%.

How did the pIC50 [3] turn out when `CN(C)c1ccc(C2=C(c3ccc(S(C)(=O)=O)cc3)CCC2)cc1Cl` was run?
The pIC50 was 4.42.

`NS(=O)(=O)c1ccc(C2=C(c3ccc(C(F)(F)F)c(F)c3)CCC2)cc1` was tested. Which pIC50 [3] did it give?
The pIC50 was 4.84.

`COc1ccc(C2=C(c3ccc(S(N)(=O)=O)cc3)CCC2)cc1Cl` was tested. Which inhibition in vivo at 30 mg/kg (Rattus norvegicus [1]) did it give?
Its inhibition in vivo at 30 mg/kg is 32%.

And the inhibition in vivo at 1 mg/kg (Rattus norvegicus [2])?
The inhibition in vivo at 1 mg/kg was 25%.

With `NS(=O)(=O)c1ccc(C2=C(c3ccc(Cl)c(Cl)c3)CCC2)cc1` as the compound, how does the inhibition in vivo at 30 mg/kg (Rattus norvegicus [1]) read?
The inhibition in vivo at 30 mg/kg was 31%.

And the inhibition in vivo at 1 mg/kg (Rattus norvegicus [2])?
The inhibition in vivo at 1 mg/kg was 83%.

`CN(C)c1ccc(C2=C(c3ccc(S(N)(=O)=O)cc3)CCC2)cc1Cl` was tested. Which pIC50 [3] did it give?
The pIC50 was 5.74.

For `COc1ccc(C2=C(c3ccc(S(N)(=O)=O)cc3)CCC2)cc1F`, which inhibition in vivo at 1 mg/kg (Rattus norvegicus [2]) is on record?
Its inhibition in vivo at 1 mg/kg is 25%.

`COc1ccc(C2=C(c3ccc(S(N)(=O)=O)cc3)CCC2)cc1` was tested. Which inhibition in vivo at 30 mg/kg (Rattus norvegicus [1]) did it give?
Its inhibition in vivo at 30 mg/kg is 10%.

With `CS(=O)(=O)c1ccc(C2=C(c3ccc(Cl)c(Cl)c3)CCC2)cc1` as the compound, how does the inhibition in vivo at 1 mg/kg (Rattus norvegicus [2]) read?
Its inhibition in vivo at 1 mg/kg is 45%.

With `NS(=O)(=O)c1ccc(C2=C(c3ccc(F)c(Cl)c3)CCC2)cc1` as the compound, how does the inhibition in vivo at 30 mg/kg (Rattus norvegicus [1]) read?
The inhibition in vivo at 30 mg/kg was 43.3%.

And the pIC50 [3]?
The pIC50 was 5.29.

And the inhibition in vivo at 1 mg/kg (Rattus norvegicus [2])?
The inhibition in vivo at 1 mg/kg was 81.5%.

Which inhibition in vivo at 30 mg/kg (Rattus norvegicus [1]) does the source give for `NS(=O)(=O)c1ccc(C2=C(c3ccc(F)cc3)CCC2)cc1` here?
Its inhibition in vivo at 30 mg/kg is 45.3%.

And the inhibition in vivo at 1 mg/kg (Rattus norvegicus [2])?
Its inhibition in vivo at 1 mg/kg is 79%.

`CS(=O)(=O)Nc1cc2c(cc1Sc1ccc(F)cc1F)C(=O)CC2` was tested. Which pIC50 [3] did it give?
Its pIC50 is under 5.00.

How did the pIC50 [3] turn out when `COc1c(Cl)cc(C2=C(c3ccc(S(C)(=O)=O)cc3)CCC2)cc1Cl` was run?
The pIC50 was under 4.00.

With `COc1c(Cl)cc(C2=C(c3ccc(S(N)(=O)=O)cc3)CCC2)cc1Cl` as the compound, how does the pIC50 [3] read?
Its pIC50 is 4.15.

`CS(=O)(=O)c1ccc(C2=C(c3ccc(F)c(Cl)c3)CCC2)cc1` was tested. Which inhibition in vivo at 30 mg/kg (Rattus norvegicus [1]) did it give?
Its inhibition in vivo at 30 mg/kg is 40%.

How did the pIC50 [3] turn out when `CS(=O)(=O)c1ccc(C2=C(c3ccc(C(F)(F)F)c(F)c3)CCC2)cc1` was run?
The pIC50 was under 4.00.

`NS(=O)(=O)c1ccc(C2=C(c3cc(F)c(F)c(F)c3)CCC2)cc1` was tested. Which pIC50 [3] did it give?
Its pIC50 is under 4.00.

How did the inhibition in vivo at 30 mg/kg (Rattus norvegicus [1]) turn out when `CS(=O)(=O)c1ccc(C2=C(c3ccc(Cl)cc3)CCC2)cc1` was run?
The inhibition in vivo at 30 mg/kg was 49%.

What about the inhibition in vivo at 1 mg/kg (Rattus norvegicus [2]) of the same compound?
The inhibition in vivo at 1 mg/kg was 21%.

How did the pIC50 [3] turn out when `CS(=O)(=O)c1ccc(C2=C(c3cc(F)c(F)c(F)c3)CCC2)cc1` was run?
Its pIC50 is under 4.00.

`CS(=O)(=O)c1ccc(C2=C(c3ccc(F)c(C(F)(F)F)c3)CCC2)cc1` was tested. Which pIC50 [3] did it give?
The pIC50 was under 4.00.

How did the pIC50 [3] turn out when `NS(=O)(=O)c1ccc(C2=C(c3ccc4c(c3)OCO4)CCC2)cc1` was run?
The pIC50 was 5.72.

What does the source list for `CS(=O)(=O)c1ccc(C2=C(c3ccc(F)cc3)CCC2)cc1` [SC-57666]?
inhibition in vivo at 30 mg/kg (Rattus norvegicus [1]): 45.3%; inhibition in vivo at 1 mg/kg (Rattus norvegicus [2]): 29.3%
